In ChEMBL document CHEMBL1201862, “PubChem BioAssay data set” (2004):
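A five-concentration, 48-hour dose response in 96-well plates underlies each endpoint, interpolated linearly between surrounding concentrations. At the GI50, growth is halved.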 Calls of active or inactive are those of the source. Rule as the data show it: active = GI50 up to about 1.1 µM and inactive = higher.

Experiments:
Assay in all cases: inhibition of tumour cell growth, NCI panel, 48 h
CCRF-CEM = test system: CCRF-CEM
A549 = test system: A549
MCF7 = test system: MCF7
NCI-H522 = test system: NCI-H522
KM12 = test system: KM12
SNB-19 = test system: SNB-19
RPMI-8226 = test system: RPMI-8226
COLO 205 = test system: COLO 205
MDA-MB-231 = test system: MDA-MB-231
SK-MEL-28 = test system: SK-MEL-28
UACC-62 = test system: UACC-62
OVCAR-4 = test system: OVCAR-4
Malme-3M = test system: Malme-3M
SNB-75 = test system: SNB-75
DU-145 = test system: DU-145
HOP-62 = test system: HOP-62
SW-620 = test system: SW-620
A498 = test system: A498
RXF 393 = test system: RXF 393

Measured: GI50

COc1ccc(NCC(=O)Nn2c(C)nc3ccc(S(=O)(=O)Nc4ccc(OC)cc4)cc3c2=O)cc1
inactive: CCRF-CEM > 100 µM | A549 > 100 µM | MCF7 > 100 µM | NCI-H522 > 100 µM | KM12 > 100 µM | SNB-19 > 100 µM | RPMI-8226 > 100 µM | COLO 205 > 100 µM | MDA-MB-231 > 100 µM | SK-MEL-28 > 100 µM | UACC-62 > 100 µM | OVCAR-4 > 100 µM | Malme-3M > 100 µM | SNB-75 > 100 µM | DU-145 > 100 µM | HOP-62 > 100 µM | SW-620 > 100 µM

O=S(=O)(/N=C1/S/C(=N\c2ccccc2)N(c2ccccc2)/C1=N/S(=O)(=O)c1ccccc1)c1ccccc1
inactive: CCRF-CEM 28.7 µM | A549 22.6 µM | MCF7 20.5 µM | KM12 19.4 µM | SNB-19 24 µM | RPMI-8226 17.7 µM | A498 11.4 µM | COLO 205 26.9 µM | MDA-MB-231 13.7 µM | SK-MEL-28 16.6 µM | UACC-62 17.2 µM | Malme-3M 22.5 µM | SNB-75 20.7 µM | HOP-62 28.5 µM | SW-620 19.4 µM

CC(N)(/C=C/c1ccccc1)C(=O)O (stereo not given)
inactive: A549 > 100 µM | MCF7 > 100 µM | NCI-H522 > 100 µM | KM12 > 100 µM | SNB-19 > 100 µM | RPMI-8226 > 100 µM | A498 > 100 µM | COLO 205 > 100 µM | MDA-MB-231 > 100 µM | SK-MEL-28 > 100 µM | UACC-62 > 100 µM | OVCAR-4 > 100 µM | Malme-3M > 100 µM | HOP-62 > 100 µM | SW-620 > 100 µM

C/C(=N/NC(N)=S)C(CN1CCOCC1)C(C1=C(O)c2ccccc2OC1)c1ccccc1 (stereo not given)
inactive: CCRF-CEM 60.7 µM | A549 > 100 µM | NCI-H522 > 100 µM | RXF 393 > 100 µM | KM12 > 100 µM | SNB-19 > 100 µM | RPMI-8226 90.2 µM | A498 > 100 µM | COLO 205 68.9 µM | UACC-62 > 100 µM | OVCAR-4 > 100 µM | Malme-3M 69 µM | SNB-75 78 µM | DU-145 > 100 µM | SW-620 > 100 µM

COC(=O)C1(C(=O)OC)N=C(C)OC1c1ccccn1 (stereo not given)
inactive: CCRF-CEM > 100 µM | A549 > 100 µM | MCF7 > 100 µM | RXF 393 > 100 µM | KM12 > 100 µM | SNB-19 > 100 µM | RPMI-8226 > 100 µM | A498 > 100 µM | COLO 205 > 100 µM | SK-MEL-28 > 100 µM | UACC-62 > 100 µM | OVCAR-4 > 100 µM | SNB-75 > 100 µM | DU-145 > 100 µM | HOP-62 > 100 µM | SW-620 > 100 µM

COC(=O)NN=C1C(C)(C)C(=O)C1(C)C
inactive: CCRF-CEM > 100 µM | A549 > 100 µM | NCI-H522 > 100 µM | RXF 393 > 100 µM | KM12 > 100 µM | RPMI-8226 > 100 µM | A498 > 100 µM | COLO 205 > 100 µM | SK-MEL-28 > 100 µM | UACC-62 > 100 µM | Malme-3M > 100 µM | SNB-75 > 100 µM | HOP-62 > 100 µM | SW-620 > 100 µM

CCOc1ccc2c(c1)/C(=C(\C(Cl)=C(Cl)Cl)[N+](=O)[O-])N2
inactive: CCRF-CEM 47.9 µM | A549 > 100 µM | MCF7 > 100 µM | KM12 > 100 µM | SNB-19 > 100 µM | RPMI-8226 69.3 µM | A498 > 100 µM | COLO 205 > 100 µM | MDA-MB-231 > 100 µM | SK-MEL-28 > 100 µM | UACC-62 > 100 µM | OVCAR-4 33.2 µM | Malme-3M > 100 µM | SNB-75 > 100 µM | DU-145 > 100 µM | HOP-62 > 100 µM | SW-620 > 100 µM

Cc1cc(-c2no[n+]([O-])c2-c2cc(C)sc2S(C)(=O)=O)c(S(C)(=O)=O)s1
inactive: CCRF-CEM > 100 µM | NCI-H522 87.5 µM | KM12 > 100 µM | SNB-19 20.2 µM | RPMI-8226 > 100 µM | A498 > 100 µM | COLO 205 > 100 µM | MDA-MB-231 > 100 µM | SK-MEL-28 > 100 µM | OVCAR-4 > 100 µM | SNB-75 > 100 µM | HOP-62 > 100 µM | SW-620 > 100 µM

O=S(=O)(O)c1ccc(NN(c2c(O)ccc3ccccc23)S(=O)(=O)O)cc1
inactive: CCRF-CEM > 100 µM | A549 > 100 µM | MCF7 > 100 µM | NCI-H522 > 100 µM | KM12 > 100 µM | SNB-19 > 100 µM | RPMI-8226 > 100 µM | A498 > 100 µM | COLO 205 > 100 µM | MDA-MB-231 > 100 µM | SK-MEL-28 > 100 µM | UACC-62 > 100 µM | OVCAR-4 > 100 µM | Malme-3M > 100 µM | DU-145 > 100 µM | HOP-62 > 100 µM | SW-620 > 100 µM

CNc1ncnc2c1nnn2C
inactive: CCRF-CEM > 100 µM | A549 > 100 µM | MCF7 > 100 µM | NCI-H522 > 100 µM | RXF 393 > 100 µM | KM12 > 100 µM | SNB-19 > 100 µM | RPMI-8226 > 100 µM | A498 > 100 µM | COLO 205 > 100 µM | SK-MEL-28 > 100 µM | UACC-62 > 100 µM | OVCAR-4 > 100 µM | Malme-3M > 100 µM | SNB-75 > 100 µM | DU-145 > 100 µM | HOP-62 > 100 µM | SW-620 > 100 µM

Fc1cccc(F)c1C1SCc2nc3ccccc3n21 (stereo not given) [THIAZOLOBENZIMIDAZOLE]
inactive: CCRF-CEM 52.4 µM | A549 > 100 µM | NCI-H522 53.7 µM | RXF 393 > 100 µM | KM12 > 100 µM | SNB-19 > 100 µM | RPMI-8226 35.2 µM | A498 > 100 µM | COLO 205 > 100 µM | UACC-62 47 µM | OVCAR-4 > 100 µM | Malme-3M 55.5 µM | SNB-75 > 100 µM | HOP-62 > 100 µM | SW-620 > 100 µM

Cc1ccc(S(=O)(=O)Nn2c(-c3ccccc3)c(C#N)c(-c3ccc([N+](=O)[O-])cc3)c(C#N)c2=O)cc1
inactive: CCRF-CEM 32.1 µM | A549 > 100 µM | MCF7 61.2 µM | NCI-H522 13.3 µM | RXF 393 > 100 µM | KM12 > 100 µM | SNB-19 40.8 µM | RPMI-8226 25.8 µM | A498 > 100 µM | COLO 205 > 100 µM | MDA-MB-231 > 100 µM | SK-MEL-28 > 100 µM | UACC-62 > 100 µM | OVCAR-4 > 100 µM | Malme-3M > 100 µM | SNB-75 96.6 µM | HOP-62 > 100 µM | SW-620 > 100 µM
